Reference: ChEMBL document CHEMBL3797052 (Eur J Med Chem, 2016)

test system: SN12C; assay: Antiproliferative activity against human SN12C cells assessed as growth inhibition after 48 hrs by sulforhodamine B assay; type: functional; conditions: not given

Row | Structure (SMILES) | GI50 [µM] | TGI [µM]
1 | CNC(=O)c1cc(Oc2ccc(NC(=O)Nc3ccc(Cl)c(C(F)(F)F)c3)cc2)ccn1 [SORAFENIB] | 2.51 | 10

same assay, conditions: read-out: LC50 (the source's name)

Row | Structure (SMILES) | CC50 [µM]
2 | CNC(=O)c1cc(Oc2ccc(NC(=O)Nc3ccc(Cl)c(C(F)(F)F)c3)cc2)ccn1 [SORAFENIB] | 39.8

test system: not listed separately; assay: Antiproliferative activity against human RXF393 cells assessed as growth inhibition after 48 hrs by sulforhodamine B assay; type: functional; conditions: RXF 393, 48 h

Row | Structure (SMILES) | GI50 [µM] | TGI [µM]
3 | CNC(=O)c1cc(Oc2ccc(NC(=O)Nc3ccc(Cl)c(C(F)(F)F)c3)cc2)ccn1 [SORAFENIB] | 3.16 | 10

same assay, conditions: RXF 393, 48 h, read-out: LC50 (the source's name)

Row | Structure (SMILES) | CC50 [µM]
4 | CNC(=O)c1cc(Oc2ccc(NC(=O)Nc3ccc(Cl)c(C(F)(F)F)c3)cc2)ccn1 [SORAFENIB] | 39.8

test system: not listed separately; assay: Antiproliferative activity against human SKOV3 cells assessed as growth inhibition after 48 hrs by sulforhodamine B assay; type: functional; conditions: SK-OV-3, 48 h

Row | Structure (SMILES) | GI50 [µM] | TGI [µM]
5 | CNC(=O)c1cc(Oc2ccc(NC(=O)Nc3ccc(Cl)c(C(F)(F)F)c3)cc2)ccn1 [SORAFENIB] | 2.51 | 12.6

same assay, conditions: SK-OV-3, 48 h, read-out: LC50 (the source's name)

Row | Structure (SMILES) | CC50 [µM]
6 | CNC(=O)c1cc(Oc2ccc(NC(=O)Nc3ccc(Cl)c(C(F)(F)F)c3)cc2)ccn1 [SORAFENIB] | 63.1

test system: not listed separately; assay: Antiproliferative activity against human OVCAR8 cells assessed as growth inhibition after 48 hrs by sulforhodamine B assay; type: functional; conditions: OVCAR-8, 48 h

Row | Structure (SMILES) | GI50 [µM] | TGI [µM]
7 | CNC(=O)c1cc(Oc2ccc(NC(=O)Nc3ccc(Cl)c(C(F)(F)F)c3)cc2)ccn1 [SORAFENIB] | 2.51 | 10

test system: SK-MEL-28; assay: Antiproliferative activity against human SK-MEL-28 cells assessed as growth inhibition after 48 hrs by sulforhodamine B assay; type: functional; conditions: SK-MEL-28, 48 h

Row | Structure (SMILES) | GI50 [µM] | TGI [µM]
8 | CNC(=O)c1cc(Oc2ccc(NC(=O)Nc3ccc(Cl)c(C(F)(F)F)c3)cc2)ccn1 [SORAFENIB] | 2.51 | 7.94

same assay, conditions: SK-MEL-28, 48 h, read-out: LC50 (the source's name)

Row | Structure (SMILES) | CC50 [µM]
9 | CNC(=O)c1cc(Oc2ccc(NC(=O)Nc3ccc(Cl)c(C(F)(F)F)c3)cc2)ccn1 [SORAFENIB] | 31.6

test system: MDA-MB-435; assay: Antiproliferative activity against human MDA-MB-435 cells assessed as growth inhibition after 48 hrs by sulforhodamine B assay; type: functional; conditions: MDA-MB-435, 48 h

Row | Structure (SMILES) | TGI [µM]
10 | CNC(=O)c1cc(Oc2ccc(NC(=O)Nc3ccc(Cl)c(C(F)(F)F)c3)cc2)ccn1 [SORAFENIB] | 3.98

same assay, conditions: MDA-MB-435, 48 h, read-out: LC50 (the source's name)

Row | Structure (SMILES) | CC50 [µM]
11 | CNC(=O)c1cc(Oc2ccc(NC(=O)Nc3ccc(Cl)c(C(F)(F)F)c3)cc2)ccn1 [SORAFENIB] | 10

test system: KM12; assay: Antiproliferative activity against human KM12 cells assessed as growth inhibition after 48 hrs by sulforhodamine B assay; type: functional; conditions: KM12, 48 h

Row | Structure (SMILES) | TGI [µM]
12 | CNC(=O)c1cc(Oc2ccc(NC(=O)Nc3ccc(Cl)c(C(F)(F)F)c3)cc2)ccn1 [SORAFENIB] | 7.94

test system: not listed separately; assay: Antiproliferative activity against human HCT116 cells assessed as growth inhibition after 48 hrs by sulforhodamine B assay; type: functional; conditions: HCT-116, 48 h

Row | Structure (SMILES) | TGI [µM]
13 | CNC(=O)c1cc(Oc2ccc(NC(=O)Nc3ccc(Cl)c(C(F)(F)F)c3)cc2)ccn1 [SORAFENIB] | 3.98

test system: not listed separately; assay: Antiproliferative activity against human HOP62 cells assessed as growth inhibition after 48 hrs by sulforhodamine B assay; type: functional; conditions: HOP-62, 48 h

Row | Structure (SMILES) | GI50 [µM] | TGI [µM]
14 | CNC(=O)c1cc(Oc2ccc(NC(=O)Nc3ccc(Cl)c(C(F)(F)F)c3)cc2)ccn1 [SORAFENIB] | 2 | 7.94

test system: not listed separately; assay: Antiproliferative activity against human Hs 578T cells assessed as growth inhibition after 48 hrs by sulforhodamine B assay; type: functional; conditions: not given

Row | Structure (SMILES) | TGI [µM]
15 | CNC(=O)c1cc(Oc2ccc(NC(=O)Nc3ccc(Cl)c(C(F)(F)F)c3)cc2)ccn1 [SORAFENIB] | 7.94

same assay, conditions: read-out: LC50 (the source's name)

Row | Structure (SMILES) | CC50 [µM]
16 | CNC(=O)c1cc(Oc2ccc(NC(=O)Nc3ccc(Cl)c(C(F)(F)F)c3)cc2)ccn1 [SORAFENIB] | 100

test system: MDA-MB-468; assay: Antiproliferative activity against human MDA-MB-468 cells assessed as growth inhibition after 48 hrs by sulforhodamine B assay; type: functional; conditions: MDA-MB-468, 48 h

Row | Structure (SMILES) | GI50 [µM] | TGI [µM]
17 | CNC(=O)c1cc(Oc2ccc(NC(=O)Nc3ccc(Cl)c(C(F)(F)F)c3)cc2)ccn1 [SORAFENIB] | 2 | 7.94

same assay, conditions: MDA-MB-468, 48 h, read-out: LC50 (the source's name)

Row | Structure (SMILES) | CC50 [µM]
18 | CNC(=O)c1cc(Oc2ccc(NC(=O)Nc3ccc(Cl)c(C(F)(F)F)c3)cc2)ccn1 [SORAFENIB] | 39.8
